Values quoted from earlier work in patent US20170112865A1, “TREATMENT FOR MELANOMA” (The Board of Regents of the University of Texas System, priority 2014, published 2017).

Experiments:
[1] = test system: BRAFV600E/k mutant advanced or malignant melanoma
[2] = test system: BRAF V600E mutation-positive advanced melanoma; settings: human, in vivo
[3] = in vivo
[4] = in vivo; remark: listed apart in the source
[5] = test system: melanoma; settings: at 5 years

CC(=O)Nc1cccc(-n2c(=O)n(C3CC3)c(=O)c3c(Nc4ccc(I)cc4F)n(C)c(=O)c(C)c32)c1 [Trametinib]
Grade 3 adverse effect: hypertension ([1]; Trametinib arm): 12%
Grade 3 adverse effect: rash ([1]; Trametinib arm): 7%
most frequent adverse events ([1]; in vivo): skin rash, diarrhea, edema, hypertension, fatigue

CC(C)(C)c1nc(-c2cccc(NS(=O)(=O)c3c(F)cccc3F)c2F)c(-c2ccnc(N)n2)s1 [dabrafinib, Dabrafenib]
time within which resistance occurs [2]: 6 to 7 months

C[C@H]1O[C@@H](O[C@H]2[C@@H](O)C[C@H](O[C@H]3[C@@H](O)C[C@H](O[C@H]4CC[C@@]5(C)[C@H](CC[C@@H]6[C@@H]5C[C@@H](O)[C@]5(C)[C@@H](C7=CC(=O)OC7)CC[C@]65O)C4)O[C@@H]3C)O[C@@H]2C)C[C@H](O)[C@@H]1O [digoxin, Digoxin]
half-life [3]: about 36 hours
plasma concentration at which adverse effects are rare [4]: < 0.8 ng/mL

interferon
increase in survival [5]: 3%
